Earlier results in patent US5478810A, “Peptide amides, processes for the preparation thereof and agents containing these as fibrin/thrombin clotting inhibitors” (Behringwerke Aktiengesellschaft, priority 1990, dated 1995).
No end group written: not given here. *: point of attachment. 4‑hydroxypiperidide = C-terminal 4-hydroxypiperidide, OC1CCN(*)CC1; 3‑methylpiperidide = C-terminal 3-methylpiperidide

System: plasma clotting
Conditions: relative to GPRP = 1

Row | Substance | relative activity (amount of plasma which is inhibited with a defined amount of inhibitor)
1 | GPRP 3-methylpiperidide (GPRP-{3‑methylpiperidide}) [known peptide derivative presented at the XIth American Symposium on Peptides] | 1.29
2 | GPRP 4-hydroxypiperidide (GPRP-{4‑hydroxypiperidide}) [known peptide derivative presented at the XIth American Symposium on Peptides] | 1.2
3 | GPRP-NH2 | 3.52
